In patent US8871251B2, “Liposome and method for producing the same” (Can Heal BioMediTech Corp., priority 2008, dated 2014):

Key:
Experiment in all cases: MTT assay, curcumin concentration killing 50% of cells
Type in all cases: cell-based
JC = settings: mouse breast adenocarcinoma, mean±SD (n=6), read-out: curcumin concentration required for killing 50% of the cells
Method: (§1) In this experiment, whether the liposome has the capability of carrying drugs is observed by MTT assay. First, curcumin was added into cells at different concentrations, to obtain the curcumin concentration required for killing 50% of the cells. Next, the liposome with curcumin at different concentrations (curcumin-liposome) was sent into cells of the same type respectively, to obtain the curcumin concentration required for killing 50% of the cells. In Table 1, all the concentrations are expressed as mean±standard deviation (SD) (n=6).

HeLa = settings: human cervical cancer, mean±SD (n=6), read-out: curcumin concentration required for killing 50% of the cells
Method: as §1

A549 = settings: A549, human lung carcinoma; mean±SD (n=6); read-out: curcumin concentration required for killing 50% of the cells
Method: as §1

LL-2 = settings: LL-2, mouse lung carcinoma; mean±SD (n=6); read-out: curcumin concentration required for killing 50% of the cells
Method: as §1

B16/F10 = settings: B16/F10, mouse melanoma; mean±SD (n=6); read-out: curcumin concentration required for killing 50% of the cells
Method: as §1

HepG2 = settings: HepG2, human hepatocellular carcinoma; mean±SD (n=6); read-out: curcumin concentration required for killing 50% of the cells
Method: as §1

CT-26 = settings: CT26; CT-26, mouse colorectal adenocarcinoma; mean±SD (n=6); read-out: curcumin concentration required for killing 50% of the cells
Method: as §1

HT-29 = settings: HT-29, human colorectal adenocarcinoma; mean±SD (n=6); read-out: curcumin concentration required for killing 50% of the cells
Method: as §1

## COc1cc(/C=C/C(=O)CC(=O)/C=C/c2ccc(O)c(OC)c2)ccc1O [Curcumin, curcumin]
JC
  IC50: 11 ± 1.47 µM
HeLa
  IC50: 17.7 ± 6.95 µM
A549
  IC50: 30 ± 9.45 µM
LL-2
  IC50: 10.8 ± 2.33 µM
B16/F10
  IC50: 8.16 ± 1.01 µM
HepG2
  IC50: 12.2 ± 1.11 µM
CT-26
  IC50: 7.92 ± 0.77 µM
HT-29
  IC50: 12.9 ± 1.18 µM
